# Measurements reported in ChEMBL document CHEMBL1201862, “PubChem BioAssay data set” (2004).
#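 All cell lines were grown in 96-well plates and treated with compound for 48 hours. GI50: concentration for 50% inhibition of growth.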 Activity calls are given as the source filed them. Cut-off read from the data, not from the text of the source: active = GI50 up to about 1.1 µM and inactive = higher.
# Legend:
# Assay in all cases: growth of human tumour cells (NCI), 48 h
# UACC-257 = system: UACC-257
# A549 = system: A549
# M14 = system: M14
# SK-MEL-2 = system: SK-MEL-2
# HT-29 = system: HT-29
# SNB-19 = system: SNB-19
# EKVX = system: EKVX
# SNB-75 = system: SNB-75
# XF498 = system: XF498
# HOP-18 = system: HOP-18
# HL-60 = system: HL-60
# HCT-15 = system: HCT-15
# MOLT-4 = system: MOLT-4
# IGROV-1 = system: IGROV-1
# SF-295 = system: SF-295
# HCT-116 = system: HCT-116
# HOP-62 = system: HOP-62
# A498 = system: A498
# OVCAR-3 = system: OVCAR-3
# UO-31 = system: UO-31
# NCI-H226 = system: NCI-H226
# TK-10 = system: TK-10
# RXF 393 = system: RXF 393
# LOX IMVI = system: LOX IMVI
# SK-MEL-28 = system: SK-MEL-28
# OVCAR-8 = system: OVCAR-8
# HCC 2998 = system: HCC 2998
# CAKI-1 = system: CAKI-1
# SF-268 = system: SF-268
# LXFL 529 = system: LXFL 529
# SN12C = system: SN12C
# NCI-H522 = system: NCI-H522
# UACC-62 = system: UACC-62
# M19-MEL = system: M19-MEL
# SK-MEL-5 = system: SK-MEL-5
# SW-620 = system: SW-620
# NCI-H23 = system: NCI-H23
# CCRF-CEM = system: CCRF-CEM
# COLO 205 = system: COLO 205
# KM-20L2 = system: KM-20L2
# DLD-1 = system: DLD-1
# SF-539 = system: SF-539
# Malme-3M = system: Malme-3M
# SK-OV-3 = system: SK-OV-3
# DMS-273 = system: DMS-273
# NCI-H460 = system: NCI-H460
# 786-0 = system: 786-0
# U-251 = system: U-251
# OVCAR-4 = system: OVCAR-4
# K562 = system: K562
# RPMI-8226 = system: RPMI-8226
# KM12 = system: KM12
# SNB-78 = system: SNB-78
# DMS-114 = system: DMS-114
# RXF 631 = system: RXF 631
# ACHN = system: ACHN
# HOP-92 = system: HOP-92
# OVCAR-5 = system: OVCAR-5
smiles,measurement,setting,value
O=C(O)c1cc(Cl)cc(NC(=O)C(Cl)Cl)c1Cl,GI50,UACC-257,> 100 µM (inactive)
same,GI50,A549,> 100 µM (inactive)
same,GI50,M14,> 100 µM (inactive)
same,GI50,SK-MEL-2,> 100 µM (inactive)
same,GI50,HT-29,> 100 µM (inactive)
same,GI50,SNB-19,> 100 µM (inactive)
same,GI50,EKVX,> 100 µM (inactive)
same,GI50,SNB-75,> 100 µM (inactive)
same,GI50,XF498,> 100 µM (inactive)
same,GI50,HOP-18,> 100 µM (inactive)
same,GI50,HL-60,> 100 µM (inactive)
same,GI50,HCT-15,> 100 µM
same,GI50,MOLT-4,> 100 µM (inactive)
same,GI50,IGROV-1,> 100 µM (inactive)
same,GI50,SF-295,> 100 µM (inactive)
same,GI50,HCT-116,> 100 µM (inactive)
same,GI50,HOP-62,> 100 µM (inactive)
same,GI50,A498,> 100 µM (inactive)
same,GI50,OVCAR-3,> 100 µM (inactive)
same,GI50,UO-31,> 100 µM (inactive)
same,GI50,NCI-H226,> 100 µM (inactive)
same,GI50,TK-10,> 100 µM (inactive)
same,GI50,RXF 393,> 100 µM (inactive)
same,GI50,LOX IMVI,> 100 µM (inactive)
same,GI50,SK-MEL-28,> 100 µM (inactive)
same,GI50,OVCAR-8,> 100 µM (inactive)
same,GI50,HCC 2998,> 100 µM (inactive)
same,GI50,CAKI-1,> 100 µM (inactive)
same,GI50,SF-268,> 100 µM (inactive)
same,GI50,LXFL 529,> 100 µM (inactive)
same,GI50,SN12C,> 100 µM (inactive)
same,GI50,NCI-H522,> 100 µM (inactive)
same,GI50,UACC-62,> 100 µM (inactive)
same,GI50,M19-MEL,> 100 µM (inactive)
same,GI50,SK-MEL-5,> 100 µM (inactive)
same,GI50,SW-620,> 100 µM (inactive)
same,GI50,NCI-H23,> 100 µM (inactive)
same,GI50,CCRF-CEM,> 100 µM (inactive)
same,GI50,COLO 205,> 100 µM (inactive)
same,GI50,KM-20L2,> 100 µM (inactive)
same,GI50,DLD-1,> 100 µM (inactive)
same,GI50,SF-539,> 100 µM (inactive)
same,GI50,Malme-3M,> 100 µM (inactive)
same,GI50,SK-OV-3,> 100 µM (inactive)
same,GI50,DMS-273,> 100 µM (inactive)
same,GI50,NCI-H460,> 100 µM (inactive)
same,GI50,786-0,> 100 µM (inactive)
same,GI50,U-251,> 100 µM (inactive)
same,GI50,OVCAR-4,> 100 µM (inactive)
same,GI50,K562,> 100 µM (inactive)
same,GI50,RPMI-8226,> 100 µM (inactive)
same,GI50,KM12,> 100 µM (inactive)
same,GI50,SNB-78,> 100 µM (inactive)
same,GI50,DMS-114,> 100 µM (inactive)
same,GI50,RXF 631,> 100 µM (inactive)
same,GI50,ACHN,> 100 µM (inactive)
CCc1c(OC(C)=O)c2c(NC3OC(COC(C)=O)C(OC(C)=O)C(OC(C)=O)C3OC(C)=O)nc(SC)nc2oc1=O (stereo not given),GI50,UACC-257,> 100 µM (inactive)
same,GI50,A549,> 100 µM (inactive)
same,GI50,M14,> 100 µM (inactive)
same,GI50,SK-MEL-2,> 100 µM (inactive)
same,GI50,HOP-92,> 100 µM (inactive)
same,GI50,HT-29,> 100 µM (inactive)
same,GI50,SNB-19,> 100 µM (inactive)
same,GI50,EKVX,> 100 µM (inactive)
same,GI50,SNB-75,> 100 µM (inactive)
same,GI50,XF498,> 100 µM (inactive)
same,GI50,HOP-18,> 100 µM (inactive)
same,GI50,HL-60,> 100 µM (inactive)
same,GI50,HCT-15,> 100 µM
same,GI50,MOLT-4,> 100 µM (inactive)
same,GI50,IGROV-1,> 100 µM (inactive)
same,GI50,SF-295,> 100 µM (inactive)
same,GI50,HCT-116,> 100 µM (inactive)
same,GI50,OVCAR-5,> 100 µM (inactive)
same,GI50,HOP-62,> 100 µM (inactive)
same,GI50,A498,> 100 µM (inactive)
same,GI50,OVCAR-3,> 100 µM (inactive)
same,GI50,UO-31,> 100 µM (inactive)
same,GI50,NCI-H226,> 100 µM (inactive)
same,GI50,TK-10,> 100 µM (inactive)
same,GI50,RXF 393,> 100 µM (inactive)
same,GI50,LOX IMVI,> 100 µM (inactive)
same,GI50,OVCAR-8,> 100 µM (inactive)
same,GI50,HCC 2998,> 100 µM (inactive)
same,GI50,CAKI-1,> 100 µM (inactive)
same,GI50,LXFL 529,> 100 µM (inactive)
same,GI50,SN12C,> 100 µM (inactive)
same,GI50,UACC-62,> 100 µM (inactive)
same,GI50,M19-MEL,> 100 µM (inactive)
same,GI50,SK-MEL-5,> 100 µM (inactive)
same,GI50,SW-620,> 100 µM (inactive)
same,GI50,NCI-H23,> 100 µM (inactive)
same,GI50,CCRF-CEM,> 100 µM (inactive)
same,GI50,COLO 205,> 100 µM (inactive)
same,GI50,KM-20L2,> 100 µM (inactive)
same,GI50,DLD-1,> 100 µM (inactive)
same,GI50,SF-539,> 100 µM (inactive)
same,GI50,Malme-3M,> 100 µM (inactive)
same,GI50,SK-OV-3,> 100 µM (inactive)
same,GI50,NCI-H460,> 100 µM (inactive)
same,GI50,786-0,> 100 µM (inactive)
same,GI50,U-251,> 100 µM (inactive)
same,GI50,OVCAR-4,> 100 µM (inactive)
same,GI50,K562,> 100 µM (inactive)
same,GI50,RPMI-8226,> 100 µM (inactive)
same,GI50,KM12,> 100 µM (inactive)
same,GI50,SNB-78,> 100 µM (inactive)
same,GI50,DMS-114,> 100 µM (inactive)
same,GI50,RXF 631,> 100 µM (inactive)
same,GI50,ACHN,> 100 µM (inactive)
